Reference: ChEMBL document CHEMBL5512619, “Anticancer mechanism of coumarin-based derivatives” (Eur J Med Chem, 2024)
≈ marks a conversion by molar mass, not a printed value. Values belong to the compound of their own block, whether it stands above or below them.

How the values were obtained:
HCT-116 [1] = experiment: cells; settings: Homo sapiens, HCT-116, 72 h
Description: Antiproliferative activity against human HCT-116 cells measured after 72 hrs by SRB method

Caco-2 [2] = experiment: Antiproliferative activity against human Caco-2 cells measured after 72 hrs by SRB method; settings: Caco-2, 72 h
MCF7 [3] = experiment: Antiproliferative activity against human MCF7 cells measured after 72 hrs by MTT assay; type: functional, cell-based; settings: MCF7, 72 h
T98G = experiment: Induction of apoptosis in human T98G cells relative to control; type: functional
MDA-MB-231 [4] = experiment: Antiproliferative activity against human MDA-MB-231 cells incubated for 96 hrs by MTT assay; settings: MDA-MB-231, 96 h
Carbonic anhydrase 12 = Carbonic anhydrase 12 (Homo sapiens, UniProt O43570); experiment: Binding affinity to human CA12 assessed as inhibition constant incubated for 10 mins by phenol red dye based stopped flow CO2 hydration assay
Chain of Carbonic anhydrase 12 (O43570 whole entry): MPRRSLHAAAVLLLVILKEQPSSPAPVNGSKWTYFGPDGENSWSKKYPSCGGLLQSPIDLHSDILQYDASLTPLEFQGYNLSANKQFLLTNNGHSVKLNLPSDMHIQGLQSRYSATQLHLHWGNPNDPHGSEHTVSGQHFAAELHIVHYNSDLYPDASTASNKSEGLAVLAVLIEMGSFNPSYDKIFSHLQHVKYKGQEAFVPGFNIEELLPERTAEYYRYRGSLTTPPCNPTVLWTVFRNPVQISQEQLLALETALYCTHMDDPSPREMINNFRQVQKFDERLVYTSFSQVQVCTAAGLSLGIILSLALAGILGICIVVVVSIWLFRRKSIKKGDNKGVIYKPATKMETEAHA

Carbonic anhydrase 2 [5] = biological target: T1, Carbonic anhydrase 2 (Homo sapiens, UniProt P00918); experiment: Binding affinity to human CA2 assessed as inhibition constant incubated for 10 mins by phenol red dye based stopped flow CO2 hydration assay
Carbonic anhydrase 9 = Carbonic anhydrase 9 (Homo sapiens, UniProt Q16790); experiment: Binding affinity to human CA9 assessed as inhibition constant incubated for 10 mins by phenol red dye based stopped flow CO2 hydration assay
Carbonic anhydrase 1 [6] = biological target: T2, Carbonic anhydrase 1 (Homo sapiens, UniProt P00915); experiment: Binding affinity to human CA1 assessed as inhibition constant incubated for 10 mins by phenol red dye based stopped flow CO2 hydration assay
T2 sequence (P00915 whole entry): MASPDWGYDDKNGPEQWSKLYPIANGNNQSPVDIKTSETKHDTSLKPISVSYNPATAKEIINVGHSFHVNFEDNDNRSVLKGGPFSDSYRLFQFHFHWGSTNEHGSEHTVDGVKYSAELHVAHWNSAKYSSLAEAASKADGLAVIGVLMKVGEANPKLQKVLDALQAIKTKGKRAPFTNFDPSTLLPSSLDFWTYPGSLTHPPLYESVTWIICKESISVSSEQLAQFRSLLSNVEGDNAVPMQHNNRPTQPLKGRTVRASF

[7] = Induction of apoptosis in human MOG-G-CCM cells relative to control; type: functional
[8] = Induction of autophagy in human MOG-G-CCM cells relative to control; type: functional
HeLa [9] = experiment: Antiproliferative activity against human HeLa cells measured after 72 hrs by SRB method; type: functional, cell-based
HCT-116 [10] = experiment: Antiproliferative activity against human HCT-116 cells measured after 72 hrs in presence of paclitaxel by SRB method; type: functional, cell-based; settings: HCT-116, 72 h
Caco-2 [11] = experiment: Antiproliferative activity against human Caco-2 cells measured after 72 hrs in presence of paclitaxel by SRB method; type: functional, cell-based; settings: Caco-2, 72 h
MCF7 [12] = experiment: Antiproliferative activity against human MCF7 cells measured after 72 hrs by SRB method; type: functional, cell-based; settings: MCF7, 72 h
HepG2 = experiment: Antiproliferative activity against human HepG2 cells measured after 72 hrs by SRB method; type: functional, cell-based; settings: HepG2, 72 h
[13] = biological target: Vascular endothelial growth factor receptor 2 (Homo sapiens, UniProt P35968); experiment: Inhibition of VEGFR2 (unknown origin)
Chain of Vascular endothelial growth factor receptor 2 (P35968 whole entry): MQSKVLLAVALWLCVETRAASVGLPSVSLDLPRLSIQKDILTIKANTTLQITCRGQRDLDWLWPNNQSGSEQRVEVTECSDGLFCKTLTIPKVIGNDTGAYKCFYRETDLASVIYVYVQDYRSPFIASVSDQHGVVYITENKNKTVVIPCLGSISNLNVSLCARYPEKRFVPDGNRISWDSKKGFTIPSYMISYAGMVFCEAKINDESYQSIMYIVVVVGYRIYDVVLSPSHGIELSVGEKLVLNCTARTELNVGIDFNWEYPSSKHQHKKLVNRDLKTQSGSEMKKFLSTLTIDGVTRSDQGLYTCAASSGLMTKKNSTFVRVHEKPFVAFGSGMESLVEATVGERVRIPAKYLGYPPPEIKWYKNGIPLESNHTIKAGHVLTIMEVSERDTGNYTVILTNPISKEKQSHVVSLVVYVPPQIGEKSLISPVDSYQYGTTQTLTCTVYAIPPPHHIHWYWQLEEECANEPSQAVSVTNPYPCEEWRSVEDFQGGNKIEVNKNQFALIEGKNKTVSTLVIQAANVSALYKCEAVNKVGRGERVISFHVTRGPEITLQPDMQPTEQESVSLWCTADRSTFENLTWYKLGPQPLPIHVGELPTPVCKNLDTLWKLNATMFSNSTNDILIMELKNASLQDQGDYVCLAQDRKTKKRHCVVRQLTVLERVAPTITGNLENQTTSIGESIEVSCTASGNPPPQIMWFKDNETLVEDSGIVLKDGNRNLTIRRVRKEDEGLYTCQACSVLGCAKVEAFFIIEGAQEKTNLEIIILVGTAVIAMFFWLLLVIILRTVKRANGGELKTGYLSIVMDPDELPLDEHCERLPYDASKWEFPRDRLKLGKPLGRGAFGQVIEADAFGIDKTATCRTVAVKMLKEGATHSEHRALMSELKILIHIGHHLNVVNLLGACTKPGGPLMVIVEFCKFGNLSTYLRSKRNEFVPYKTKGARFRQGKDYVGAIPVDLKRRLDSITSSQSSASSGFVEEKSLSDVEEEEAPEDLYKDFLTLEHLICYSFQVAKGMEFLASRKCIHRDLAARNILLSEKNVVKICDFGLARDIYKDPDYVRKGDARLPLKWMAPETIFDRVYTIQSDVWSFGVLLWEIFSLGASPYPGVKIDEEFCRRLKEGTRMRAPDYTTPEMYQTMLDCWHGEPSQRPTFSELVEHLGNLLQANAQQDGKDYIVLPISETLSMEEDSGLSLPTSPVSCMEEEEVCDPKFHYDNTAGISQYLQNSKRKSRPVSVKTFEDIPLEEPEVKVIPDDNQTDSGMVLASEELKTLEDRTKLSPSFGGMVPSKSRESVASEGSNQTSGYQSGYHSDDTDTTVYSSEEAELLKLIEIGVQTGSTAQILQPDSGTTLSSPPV

MCF7 [14] = experiment: Cytotoxicity against human MCF-7 cells; type: functional, cell-based
[15] = Inhibition of DNA topoisomerase II (unknown origin)
MCF7 [16] = experiment: Cytotoxicity against human MCF-7 cells relative to control; type: functional
Carbonic anhydrase 1 [17] = biological target: T2, Carbonic anhydrase 1; experiment: Binding affinity to human CA1 assessed as inhibition constant incubated for 6 hrs by phenol red dye based stopped flow CO2 hydration assay
Carbonic anhydrase 2 [18] = biological target: T1, Carbonic anhydrase 2; experiment: Binding affinity to human CA2 assessed as inhibition constant incubated for 6 hrs by phenol red dye based stopped flow CO2 hydration assay
HeLa [19] = experiment: Antiproliferative activity against human HeLa cells; type: functional, cell-based
MCF7 [20] = experiment: Cytotoxicity against human MCF7 cells assessed as inhibition of cell growth by MTT assay; type: functional, cell-based
A549 = experiment: Cytotoxicity against human A549 cells assessed as inhibition of cell growth by MTT assay; type: functional, cell-based
[21] = Cytotoxicity against human BEAS-2B cells assessed as inhibition of cell growth by MTT assay; type: toxicity, cell-based
[22] = biological target: Bromodomain-containing protein 4 (Homo sapiens, UniProt O60885); experiment: Inhibition of BRD4 (unknown origin)
MDA-MB-231 [23] = experiment: Inhibition of cell invasion in human MDA-MB-231 cells at 100 uM measured after 24 hrs by crystal violet staining based microscopy analysis relative to control; type: functional
T-cell = experiment: Cytotoxicity against mouse T-lymphocyte cells by MTT assay; type: functional, cell-based
EL4 = experiment: Cytotoxicity against mouse EL4 cells by MTT assay; type: functional, cell-based
[24] = Cytotoxicity against mouse LB3 cells by MTT assay; type: functional, cell-based

IC50 (HCT-116 [1]): 27.9 nM
IC50 (Caco-2 [2]): 2100 nM
Structure (SMILES): CC(=O)O[C@H]1C(=O)[C@@]2(C)[C@H]([C@H](OC(=O)c3ccccc3)[C@]3(O)C[C@H](OC(=O)[C@H](O)[C@@H](NC(=O)c4ccccc4)c4ccccc4)C(C)=C1C3(C)C)[C@]1(OC(C)=O)CO[C@@H]1C[C@@H]2O [PACLITAXEL]

IC50 (MCF7 [3]): 193000 nM
Structure (SMILES): O=c1ccc2cc(O)c(O)cc2o1 [ESCULETIN]

Structure (SMILES): O=c1cc(O)c2ccccc2o1 [4-HYDROXYCOUMARINS]
Activity (T98G): 15%
IC50 (MDA-MB-231 [4]): > 100000 nM

Ki (Carbonic anhydrase 12): 30.6 nM
Ki (Carbonic anhydrase 2 [5]): 99.4 nM
Ki (Carbonic anhydrase 9): 30.6 nM
Ki (Carbonic anhydrase 1 [6]): 99.4 nM
Structure (SMILES): O=C(Nc1ccc2c(c1)C=CS(=O)(=O)O2)c1ccc(F)c(S(=O)(=O)N2CCCCC2)c1

Structure (SMILES): CNC(=O)c1cc(Oc2ccc(NC(=O)Nc3ccc(Cl)c(C(F)(F)F)c3)cc2)ccn1 [SORAFENIB]
Activity [7]: 25%
Activity [8]: 1%

IC50 (HCT-116 [1]): 740 nM
IC50 (HeLa [9]): 740 nM
IC50 (HCT-116 [10]): 5.1 nM
IC50 (Caco-2 [11]): 130 nM
IC50 (MCF7 [12]): 740 nM
IC50 (HepG2): 740 nM
Structure (SMILES): COc1cc(C)c2oc(=O)c(C)c3c2c1[C@@H](C)CO3

IC50 [13]: 34200 nM
IC50 [15]: 8600 nM
Structure (SMILES): COC(=O)C(Cc1ccc(O)cc1)NC(=O)c1cc2ccccc2oc1=O (centres undefined)
IC50 (MCF7 [14]): 4980 nM
Activity (MCF7 [16]): 97.82%

Ki (Carbonic anhydrase 1 [17]): > 10000 nM
Ki (Carbonic anhydrase 2 [18]): > 10000 nM
Structure (SMILES): Cc1cc(=O)oc2cc(OCc3cn(CCCCCCCCCCOc4ccc5ccc(=O)oc5c4)nn3)ccc12

IC50 (HeLa [19]): 8000 nM
Structure (SMILES): Cc1c(C(C)C)c(=O)oc2cc(O)cc(O)c12

Structure (SMILES): C/C(=N\Cc1ccc(O)cc1)c1c(O)c2ccccc2oc1=O
IC50 (MCF7 [20]): 1.41 µg/mL (≈ 4.56 µM)
IC50 (A549): 6.09 µg/mL (≈ 19.7 µM)
IC50 [21]: 4.08 µg/mL (≈ 13.2 µM)

IC50 [22]: 99 nM
Structure (SMILES): CCS(=O)(=O)Nc1ccc(Oc2ccccc2OC)c(-c2ccc3oc(=O)cc(OC)c3c2)c1

IC50 [15]: 9650 nM
IC50 (MDA-MB-231 [4]): 600 nM
Structure (SMILES): COc1cccc2c1C(=O)c1c(O)c3c(c(O)c1C2=O)C[C@@](O)(C(=O)CO)C[C@@H]3O[C@H]1C[C@H](N)[C@H](O)[C@H](C)O1 [DOXORUBICIN]

Structure (SMILES): COc1ccc2ccc(=O)oc2c1CC=C(C)C [OSTHOLE]
inhibition at 100 µM (MDA-MB-231 [23]): 97.6%

Structure (SMILES): O=C(CCCCCNC(=O)c1cc(C(=O)NCCCCCC(=O)Nc2ccc(-c3c(-c4ccc(OCCN5CCCCC5)cc4)c4ccc(OCCN5CCCCC5)cc4oc3=O)cc2)cc(C(=O)NCCCCCC(=O)Nc2ccc(-c3c(-c4ccc(OCCN5CCCCC5)cc4)c4ccc(OCCN5CCCCC5)cc4oc3=O)cc2)c1)Nc1ccc(-c2c(-c3ccc(OCCN4CCCCC4)cc3)c3ccc(OCCN4CCCCC4)cc3oc2=O)cc1
IC50 (T-cell): 10000 nM
IC50 (EL4): 10000 nM
IC50 [24]: 10000 nM
